Measurements from patent US20250000874A1, “BACTERIAL METABOLITES AND THEIR USE IN REDUCING INFLAMMATION” (LOYOLA UNIVERSITY OF CHICAGO, priority 2023, published 2025).
“Also recorded” adds a separate entry of the source.

How the values were obtained:
dry eye disease model = experiment: Murine experimental dry eye (DED) model, ICES; type: in vivo, mouse
From the text: FIG. 12. Corneal Florescein Staining with JE-treated Experimental Dry Eye. Mean corneal staining score with JE/control topical treatment (4 times/day) starting 3 weeks after housing in ICES. Group 1: Normal control (non DED); group 2: Dry Eye treated with JE (JE+DED); Group 3: Dry Eye treated with vehicle (control DED). P value: *: <0.05. One of two experiments is shown.
FIG. 25. Pro-Inflammatory IL-6 Cytokine Expression in Corneal Tissues Isolated from Control, Vehicle Control, and Treatment Groups. Corneal samples from the three groups were isolated, stabilized in RNA later, and stored at-80. Corneal samples were homogenized, and RNA was purified using RNAeasy mini-kit. A total of 0.5 μg-1 μg RNA was yielded. RT-qPCR was performed. Values were normalized to GAPDH control, and fold induction was measured as 2-ΔΔCT. One of two experiments is shown.
We further tested if JE reduced corneal tissue damage in a murine DED model. Thus, normal C57BL/6J mice were maintained in relative humidity 60% to 80%, no airflow at 21-23° C. as normal control (Group 1). The experimental dry eye was induced by using an Intelligently Controlled Environmental System (ICES). Dry eye mice (Group 2 and Group 3) were housed in ICES with relative humidity at 13+4%, airflow of 2.2+0.2 m/s, and temperature of 21-23° for 3 weeks. Group 2 mice were treated with 10 μL JE at 50 μM 0.35% (v/v) DMSO in PBS and group 3 (vehicle control) were treated with 10 μL of 0.35% (v/v) DMSO in PBS, 4 time/day topically for 14 days. Corneal fluorescein staining was evaluated at week 0, 3 and 5. The stained area was assessed according to a standardized grading system ranging from 0 to 4, with the corneal surface divided into five regions. Then the total scores from the five regions were analyzed. […] The data strongly support that JE (3,3-Difluoro-5-alpha-androstan-17-beta-yl acetate) can be used as therapeutic agent for non-infectious inflammatory diseases. […]
This pattern of staining points to significant corneal damage and inflammation. […] Next, the IL-6 cytokine expression was measured in corneal samples using RT-qPCR. […]

[1] = system: Human corneal epithelial cells; experiment: NC on IL-6 release in HCECs; type: cell-based; conditions: 50 μM NC 18 hours, 6-8 hours
Procedure: FIG. 30. NC on IL-6 Release in HCECs. Human corneal epithelial cells were plated at a uniform density of 0.2×10^6 cells/mL in 24 well plates. These cells were allowed to adhere for 6-8 hours. They were then treated 18 hours with 50tM of metabolite NC before being stimulated with 1 tg/mL of PA-Flagellin or 50 tg/mL Poly I:C. Supernatant was collected between 6-8 hours after addition of TLR agonist and centrifuged at 1250 rpms for 5 minutes to remove any debris. IL-6 in the supernatant was then quantified using a sandwich ELISA for human IL-6 with a standard of known IL-6 concentration.
Human corneal epithelial cells (HCECs) are a cell type used for models of ocular inflammation. To determine the specificity of HCEC TLR signaling, HCECs were stimulated with various TLR agonists. In this experimental model, HCECs only release IL-6 in response to TLR3 and TLR5 agonists (Poly I:C and Fla, respectively) in vitro (FIG. 29). Therefore, only Poly I:C and Fla were used for HCEC stimulation in subsequent experiments.
To determine if NC can mitigate TLR-related inflammation, HCECs were plated at a uniform density, incubated with 50 μM metabolite NC for 18 hours, and stimulated with flagellin or Poly I:C. After 6-8 hours, supernatant was collected and IL-6 was quantified. […] FIG. 30.

[2] = system: human corneal epithelial cells (HCECs); experiment: MQ on IL-6 production in HCECs in response to TLR agonists; type: cell-based; conditions: for production and secretion of IL6: MQ 50 μM overnight
Procedure: FIG. 26. MQ Reduces IL-6 Response to Toll 3 and Toll 5 Agonist. HCECs were cultured at a uniform density and allowed to adhere. Cells were then incubated overnight in MQ at a concentration of […] at 37° C. The following day, the HCECs were stimulated with FLA at a concentration of 100 ng/ml or P (I:C) at 500 μg/mL for four hours. Supernatants were collected and IL-6 concentrations were determined via ELISA.
To investigate the effects of MQ on cytokine activity, human corneal epithelial cells (HCECs) were stimulated with various TLR agonists and the production of cytokines was measured via ELISA. HCECs were seeded at a density of 2×10^5 cells/well and were treated overnight with MQ at a concentration of 50 μM and the following day they were stimulated with Flagellin (FLA) at 100 ng/ml or Poly (I:C) at a concentration of 500 μg/ml. After 4 hours, supernatant was collected and the concentration of IL-6 was determined via ELISA.
The effects of MQ on various other TLR pathways including: TLR 1/2 (PAM3CSK4), TLR 2/6 (FSL) TLR 4 (Lipopolysaccharide), TLR 7 (Imiquimod), and TLR 9 (ODN2006) was also investigated.

Molecule: CC(=O)O[C@@H]1CC[C@H]2[C@H]3CC[C@H]4CC(F)(F)CC[C@]4(C)[C@H]3CC[C@]12C [JE, 3,3-Difluoro-5-alpha-androstan-17-beta-yl acetate]
- corneal fluorescein staining score (dry eye disease model; 10 μL JE 50 μM topically 4 times/day for 14 days after 3 weeks in ICES, vs vehicle control, day 35): significantly reduced
- IL-6 expression in corneal samples (RT-qPCR) (dry eye disease model; JE eye drops four times a day for 14 days): decreased; also recorded: did not return to the baseline
- surface area of corneal damage (dry eye disease model; JE eye drops four times a day for 14 days, relative to vehicle control): decrease

Molecule: CCCCCCCCCCCCCCCC(=O)N[C@@H](C(=O)O)[C@H](C)O [NC, N-Palmitoyl-D-Threonine]
- release of IL-6 in response to Poly I:C ([1]; Poly I:C): does not significantly reduce; also recorded: modestly reduced
- release of IL-6 in response to Fla ([1]; flagellin): does not significantly reduce

Molecule: Prednicarbate [MQ]
- production and secretion of IL6 ([2]; Flagellin (FLA) 100 ng/ml 4 hours): reduced
- production and secretion of IL6 ([2]; Poly (I:C) 500 μg/ml 4 hours): reduced
- production of IL-6 ([2]; MQ alone, 50 μM overnight, no TLR agonist): not found to increase
- cytokine production, other TLR pathways ([2]; PAM3CSK4, FSL, Lipopolysaccharide, Imiquimod, ODN2006, various concentrations): did not exhibit any significant inhibitory effects
